Source: US20260102425A1 (Allergan, Inc., priority 2018, published 2026)

System: Staphylococcus aureus ATCC 29213
Experiment: Time kill efficacy against Staphylococcus aureus ATCC 29213 (log drop after 30 seconds of exposure)
Type: cell-based
Method: Time kill efficacy experiments were performed against Staphylococcus aureus ATCC 29213 (S aureus). Plates with Tryptic Soy agar (TSA) were inoculated with cultures of S aureus and incubated at 30-35° C. for 24 hours. Bacterial cultures were harvested and sample suspensions were adjusted to contain approximately […] colony-forming units (CFU) per milliliter. […] After 30 seconds of exposure, 1 mL of the test suspension was removed and added to 9.0 ml of Dey-Engley neutralizer. One hundred μL of this neutralized suspension was plated in triplicates on TSA plates using an automated spiral plating instrument (Eddyjet 2, Neutec group Inc, New York, USA), with 7 log serial dilution mode. All bacterial plates were incubated at 30-35° C. for 2 days. The log drop values are determined as the difference between the logged CFU in the plates with and without the test article.

Substance: sodium chlorite
- Δ log reduction in the presence of 0.5% Brij 35 compared to alone (0.5% Brij 35 added to 5% povidone-iodine or to 8000 ppm sodium chlorite activated at pH 5, FIGS. 5A-5B): 1.6
- Δ log reduction in the presence of 0.5% Pluronic F-127 compared to alone (0.5% Pluronic F-127 added to 5% povidone-iodine or to 8000 ppm sodium chlorite activated at pH 5, FIGS. 5A-5B): 1.46
- Δ log reduction in the presence of 0.5% polysorbate 80 compared to alone (0.5% polysorbate 80 added to 5% povidone-iodine or to 8000 ppm sodium chlorite activated at pH 5, FIGS. 5A-5B): 2.9
- kill efficacy compared to sodium chlorite-only formulations and 5% povidone-iodine (800 ppm-8000 ppm sodium chlorite, pH 5 buffer, with 0.5% PS80, FIG. 2): more efficacious than sodium chlorite-only formulations
- kill efficacy compared to 5% povidone-iodine (4800 ppm and 6400 ppm sodium chlorite, pH 5 buffer, without PS80, FIG. 2): more efficacious than 5% povidone-iodine
- log reductions, alone (8000 ppm sodium chlorite activated at pH 5, alone, FIG. 5B): 2.0-3.0
- efficacy with 0.5% polysorbate 80 compared to formulations containing 0.5% Brij 35 or 0.5% Pluronic F-127 (8000 ppm sodium chlorite activated at pH 5, FIG. 5B): significantly greater
- log reduction (8000 ppm sodium chlorite activated with pH 2 buffer, 30 seconds exposure, FIG. 1, n=3): 5.0
- log reduction (8000 ppm sodium chlorite activated with pH 3 buffer, 30 seconds exposure, FIG. 1, n=3): 5.0
- log reduction (8000 ppm sodium chlorite activated with pH 4 buffer, 30 seconds exposure, FIG. 1, n=3): 5.0
- log reduction (8000 ppm sodium chlorite activated with pH 5 buffer, 30 seconds exposure, FIG. 1, n=3): 2.4
- effect of 0.5% PS80 on log reduction (8000 ppm sodium chlorite pH4, 10% FBS, 0.5% PS80, FIG. 6): significantly increased the log reduction
- bactericidal effectiveness on addition of PS80 at lower concentrations (8000 ppm sodium chlorite pH 4, 10% FBS, PS80 0.015% or 0.025%, FIG. 6): not significantly affected
- effect of the presence of FBS on log reduction (8000 ppm sodium chlorite pH 4 and 0.5% PS80, with 10% FBS, FIG. 6): essentially unaffected
- effect of added Brij 35 on kill efficacy (8000 ppm sodium chlorite pH 5 plus Brij 35 0.05%-0.5%, FIG. 3): enhanced the efficacy
- effect of added Pluronic F-127 on kill efficacy (8000 ppm sodium chlorite pH 5 plus Pluronic F-127 at 0.25% and 0.5%, FIG. 4, N=1): appeared to augment the efficacy
- log reduction (8000 ppm sodium chlorite, pH 4 buffer, absence of both 10% FBS and PS80, FIG. 6): about 5
- log reduction (8000 ppm sodium chlorite, pH 4 buffer, in the presence of 10% FBS (organic load), no PS80, FIG. 6): about 2
